Data published in ChEMBL document CHEMBL5236582, “Trehalose diesters containing a polar functional group-modified lipid moiety: Synthesis and evaluation of Mincle-mediated signaling activity” (Bioorg Med Chem, 2022).
The source made the active and inactive calls. The calls are words filed in the database; no cut-off is given here.

How the values were obtained:
[1] = molecular target: T1, C-type lectin domain family 4 member E (Homo sapiens) (UniProt Q9ULY5); assay: Induction of human Mincle expressed in NFAT-GFP reporter cells assessed as induction of mincle-mediated NFAT signaling activity by measuring stimulation of GFP reporter activity at 0.001 to 0.1 nmol/well incubated for 18 hrs by flow cytometry; format: cell-based; conditions: filed as agonist, dose 0.001-0.1 nmol
T1 sequence (whole entry): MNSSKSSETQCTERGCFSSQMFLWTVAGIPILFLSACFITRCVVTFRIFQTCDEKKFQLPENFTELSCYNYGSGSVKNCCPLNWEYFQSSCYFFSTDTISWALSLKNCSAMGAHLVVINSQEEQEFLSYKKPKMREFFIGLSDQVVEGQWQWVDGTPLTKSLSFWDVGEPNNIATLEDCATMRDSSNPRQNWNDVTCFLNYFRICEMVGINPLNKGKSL

[2] = molecular target: T2, C-type lectin domain family 4 member E (Mus musculus) (UniProt Q9R0Q8); assay: Induction of mouse Mincle expressed in NFAT-GFP reporter cells assessed as induction of mincle-mediated NFAT signaling activity by measuring stimulation of GFP reporter activity at 0.001 to 0.1 nmol/well incubated for 18 hrs by flow cytometry; format: cell-based; conditions: filed as agonist, dose 0.001-0.1 nmol
T2 sequence (whole entry): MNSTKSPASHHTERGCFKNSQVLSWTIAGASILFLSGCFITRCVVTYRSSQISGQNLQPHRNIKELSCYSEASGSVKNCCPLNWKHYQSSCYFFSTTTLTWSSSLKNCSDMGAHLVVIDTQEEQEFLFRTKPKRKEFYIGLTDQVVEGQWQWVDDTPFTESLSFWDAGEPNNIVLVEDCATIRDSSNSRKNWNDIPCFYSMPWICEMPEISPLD

[3] = Solubility of the compound in 1 mM DMSO; format: physicochemical
[4] = Solubility of the compound in 8 mM DMSO; format: physicochemical; conditions: 8000 µM
[5] = molecular target: T1, C-type lectin domain family 4 member E (Homo sapiens); assay: Induction of human Mincle expressed in NFAT-GFP reporter cells assessed as induction of mincle-mediated NFAT signaling activity by measuring stimulation of GFP reporter activity at 0.1 nmol/well incubated for 18 hrs by flow cytometry; format: cell-based; conditions: filed as agonist
[6] = molecular target: T2, C-type lectin domain family 4 member E (Mus musculus); assay: Induction of mouse Mincle expressed in NFAT-GFP reporter cells assessed as induction of mincle-mediated NFAT signaling activity by measuring stimulation of GFP reporter activity at 0.1 nmol/well incubated for 18 hrs by flow cytometry; format: cell-based; conditions: filed as agonist

Row | SMILES | Activity [1] | Activity [2] | solubility [3] | solubility [4] | Activity [5] | Activity [6]
1 | CCCCCCC(N)CCCCCCCCCCC(=O)OC[C@@H]1O[C@@H](O[C@H]2O[C@H](COC(=O)CCCCCCCCCCC(N)CCCCCC)[C@@H](O)[C@H](O)[C@H]2O)[C@@H](O)[C@H](O)[C@H]1O (some centres undefined) | Active | Active |  |  |  | 
2 | CCCCCCCCCCCCC(O)CCCCCCCCC(=O)OC[C@@H]1O[C@@H](O[C@H]2O[C@H](COC(=O)CCCCCCCCC(O)CCCCCCCCCCCC)[C@@H](O)[C@H](O)[C@H]2O)[C@@H](O)[C@H](O)[C@H]1O (some centres undefined) | Active | Active | Soluble |  |  | 
3 | CCCCCCCCCCCCCCCCCC(=O)OC[C@@H]1O[C@@H](O[C@H]2O[C@H](COC(=O)CCCCCCCCCCCCCCCCC)[C@@H](O)[C@H](O)[C@H]2O)[C@@H](O)[C@H](O)[C@H]1O |  |  |  |  | Active | Active
4 | CCCCCCC(O)CCCCCCCCCCC(=O)OC[C@@H]1O[C@@H](O[C@H]2O[C@H](COC(=O)CCCCCCCCCCC(O)CCCCCC)[C@@H](O)[C@H](O)[C@H]2O)[C@@H](O)[C@H](O)[C@H]1O (some centres undefined) | Active | Active |  |  |  | 
5 | CCCCCCCCCCC(O)CCCCCCC(=O)OC[C@@H]1O[C@@H](O[C@H]2O[C@H](COC(=O)CCCCCCC(O)CCCCCCCCCC)[C@@H](O)[C@H](O)[C@H]2O)[C@@H](O)[C@H](O)[C@H]1O (some centres undefined) | Active | Active |  |  |  | 
6 | CCCCCCCCC(N)CCCCCCCCC(=O)OC[C@@H]1O[C@@H](O[C@H]2O[C@H](COC(=O)CCCCCCCCC(N)CCCCCCCC)[C@@H](O)[C@H](O)[C@H]2O)[C@@H](O)[C@H](O)[C@H]1O (some centres undefined) | Active | Active | Soluble |  |  | 

Other lines, results leading:

Row | Activity [1] | Activity [2] | solubility [3] | solubility [4] | Activity [5] | Activity [6] | SMILES
7 |  |  |  | Soluble | Active | Active | CCCCCCCCC(O)CCCCCCCCC(=O)OC[C@@H]1O[C@@H](O[C@H]2O[C@H](COC(=O)CCCCCCCCC(O)CCCCCCCC)[C@@H](O)[C@H](O)[C@H]2O)[C@@H](O)[C@H](O)[C@H]1O (some centres undefined)
8 | Active | Active |  |  |  |  | CCCCCCCCCCCCC(N)CCCCCCCCC(=O)OC[C@@H]1O[C@@H](O[C@H]2O[C@H](COC(=O)CCCCCCCCC(N)CCCCCCCCCCCC)[C@@H](O)[C@H](O)[C@H]2O)[C@@H](O)[C@H](O)[C@H]1O (some centres undefined)
9 | Active | Active |  |  |  |  | CCCCCCCCC(=O)CCCCCCCCC(=O)OC[C@@H]1O[C@@H](O[C@H]2O[C@H](COC(=O)CCCCCCCCC(=O)CCCCCCCC)[C@@H](O)[C@H](O)[C@H]2O)[C@@H](O)[C@H](O)[C@H]1O
10 | Active | Active |  |  |  |  | CCCCCCC(=O)CCCCCCCCCCC(=O)OC[C@@H]1O[C@@H](O[C@H]2O[C@H](COC(=O)CCCCCCCCCCC(=O)CCCCCC)[C@@H](O)[C@H](O)[C@H]2O)[C@@H](O)[C@H](O)[C@H]1O
11 | Active | Active |  |  |  |  | CCCCCCCC(O)CCCCCCCCCC(=O)OC[C@@H]1O[C@@H](O[C@H]2O[C@H](COC(=O)CCCCCCCCCC(O)CCCCCCC)[C@@H](O)[C@H](O)[C@H]2O)[C@@H](O)[C@H](O)[C@H]1O (some centres undefined)
12 |  |  |  |  | Active | Active | CCCCCCCCCCCCCCCCCCCCCCCC(C(=O)OC[C@@H]1O[C@@H](O[C@H]2O[C@H](COC(=O)C(CCCCCCCCCCCCCCCCCCCCCCC)C(O)CCCCCCCCCCCCCCCCCC3CC3CCCCCCCCCCCCCCC3CC3CCCCCCCCCCCCCCCCCC)[C@@H](O)[C@H](O)[C@H]2O)[C@@H](O)[C@H](O)[C@H]1O)C(O)CCCCCCCCCCCCCCCCCC1CC1CCCCCCCCCCCCCCC1CC1CCCCCCCCCCCCCCCCCC (some centres undefined)
13 | Active | Active |  |  |  |  | CCCCCCCCCCCCC(=O)CCCCCCCCC(=O)OC[C@@H]1O[C@@H](O[C@H]2O[C@H](COC(=O)CCCCCCCCC(=O)CCCCCCCCCCCC)[C@@H](O)[C@H](O)[C@H]2O)[C@@H](O)[C@H](O)[C@H]1O
